Our source for the IC50 and MIC values is ChEMBL document CHEMBL5143544, “Chemoenzymatic synthesis, computational investigation, and antitumor activity of monocyclic lankacidin derivatives” (Bioorg Med Chem, 2022).

One experiment concerns MCF7. Briefly: cells. The following applies: Homo sapiens, MCF7, 72 h.
The test system of another experiment is A549. Description: Cytotoxicity against human A549 cells assessed as reduction in cell viability after 72 hrs by MTT assay. The class given is functional, cell-based. Conditions: A549, 72 h.
The test system of another experiment is HeLa. Briefly: Cytotoxicity against human HeLa cells assessed as reduction in cell viability after 72 hrs by MTT assay. Type of experiment: functional, cell-based. (Tetrazolium dyes change colour on reduction, which living cells bring about.)
The test system of the next experiment is Micrococcus luteus. Briefly: Antimicrobial activity against Micrococcus lutes assessed as reduction in microbial growth incubated for 24 hrs by agar dilution method. Type of experiment: functional. (In agar dilution, organisms are placed on agar that contains the substance at set levels.)

Description for MCF7: Cytotoxicity against human MCF7 cells assessed as reduction in cell viability after 72 hrs by MTT assay

As for `CC1=C\C[C@H](O)/C=C/C(C)=C/[C@@H](NC(=O)[C@H](C)O)[C@H](C)C(=O)/C(C)=C/C[C@H](O)\C=C\1`, the 50% inhibitory concentration (IC50) is over 100 µM in the experiment on MCF7, over 100 µM in the experiment on A549 and 13.3 µM in the experiment on HeLa.
Turning to `CC1=C\C[C@H](O)/C=C/C(C)=C/[C@@H](NC(=O)[C@H](C)O)[C@@H](C)C(=O)/C(C)=C/C[C@H](O)\C=C\1`, the figures for the IC50 in the experiment on MCF7, in the experiment with A549 and with HeLa were 42.8 µM, over 100 µM and 45.4 µM, respectively.
For `CC(=O)C(=O)N[C@@H]1/C=C(C)/C=C\[C@@H](O)C/C=C(C)/C=C/[C@@H](O)C[C@H]2OC(=O)[C@]1(C)C(=O)[C@@H]2C`, the IC50 in the experiment on MCF7 was over 100 µM; with A549, over 100 µM; in the experiment with HeLa it was 23.3 µM. Also, in the experiment with Micrococcus luteus, the MIC came to 6.2 µM.
For `O=c1[nH]cc(F)c(=O)[nH]1` [FLUOROURACIL], the results for the IC50 in the experiment with MCF7, with A549 and in the experiment on HeLa were 22.8 µM, 6.6 µM and 32.1 µM, respectively.
Turning to `CC(=O)C(=O)N[C@@H]1/C=C(C)/C=C/[C@@H](O)C/C=C(C)/C=C/[C@@H](O)C/C=C(\C)C(=O)[C@H]1C`, the IC50 in the experiment on MCF7 is over 100 µM; with A549 it was over 100 µM; with HeLa, 72.9 µM.
For the molecule `CC(=O)C(=O)N[C@@H]1/C=C(C)/C=C/[C@@H](O)C/C=C(C)/C=C/[C@@H](O)C/C=C(\C)C(=O)[C@@H]1C`, the IC50 in the experiment on MCF7, with A549 and with HeLa was over 100 µM each time.
On to `CC(=O)O[C@@H]1/C=C/C(C)=C/C[C@H](O)/C=C/C(C)=C/[C@@H](NC(=O)[C@H](C)O)[C@]2(C)C(=O)O[C@H](C1)[C@@H](C)C2=O`, for which the IC50 with MCF7 was 47.1 µM; with A549, over 100 µM; in the experiment on HeLa, 48.2 µM.
As for `CC(=O)O[C@H]1C(=O)[C@@]2(C)[C@H]([C@H](OC(=O)c3ccccc3)[C@]3(O)C[C@H](OC(=O)[C@H](O)[C@@H](NC(=O)c4ccccc4)c4ccccc4)C(C)=C1C3(C)C)[C@]1(OC(C)=O)CO[C@@H]1C[C@@H]2O` [PACLITAXEL], the IC50 with MCF7 is over 0.0811 µM; with A549, 0.0295 µM; in the experiment on HeLa it was under 0.00625 µM.
`CC1=C\C[C@H](O)/C=C/C(C)=C/[C@@H](NC(=O)[C@H](C)O)[C@]2(C)C(=O)O[C@H](C[C@H](O)\C=C\1)[C@@H](C)C2=O`: the IC50 in the experiment with MCF7 is 75.7 µM; with A549, over 100 µM; in the experiment on HeLa, 24.8 µM.

What is called IC50 is the concentration that gives 50% inhibition. In general, MIC refers to the least concentration at which growth counts as inhibited.
